# Laboratory results published in article PMC12307992, “The Potential Influence of Associated Antidepressants on the Pharmacokinetic Profile of Esketamine in Patients Affected by Treatment-resistant Depression” (Current Neuropharmacology, 2025).
# How the values were obtained:
# [1] = Adverse events 20 min post-esketamine (blood pressure, dizziness, confusion, ACES) in relation to serum levels; type: in vivo, patients
# Protocol: Adverse events of intranasal administration of esketamine were evaluated 20 min post-esketamine initiation, such as changes in systolic and diastolic blood pressure, vertigo, dissociation, dizziness, sedation, headache, nausea and vomiting, and confusion.
# (§1) To assess the changes in clinical status with treatment, we administered the following clinical scales at BL and one month after the first intranasal esketamine: clinician-rated Brief Psychiatric Rating Scale-version 4.0 (BPRS-24) to evaluate psychiatric symptoms; Montgomery-Åsberg Depression Rating Scale (MADRS) and Hamilton Depression Rating Scale (HAM-D) to assess depression; Hamilton Anxiety Rating Scale (HAM-A) to assess anxiety; Young Mania Rating Scale (YMRS) to assess manic symptoms, Clinical Global Impressions Scale (CGI) to assess the overall severity (CGI-S) and improvement (CGI-I), with CGI-S administered at both timepoints and CGI-I only at 1 month. Self-rated scales included the Beck Depression Inventory, 2nd edition (BDI-II), used to assess the cognitive aspects of depression (Beck’s cognitive triad), and the World Health Organization Quality of Life Scale-Brief (WHOQOL-BREF) to assess patient’s quality-of-life (QoL). For all scales save the WHOQOL-BREF, higher scores indicate higher psychopathology, while for the WHOQOL-BREF, higher scores reflect better QoL. Furthermore, we administered the clinician-rated Agitation-Calmness Evaluation Scale (ACES) to assess agitation vs. sedation during the first esketamine administration phase (BL to 72 hours). ACES is a single-item scale, in which scores from 1 to 3 are inversely related to the degree of agitation, and scores from 5 to 9 are directly related to calmness and sedation, until the score of 8 and 9, which indicate deep sleep and unarousable state, respectively. Finally, we evaluated dissociation with the Clinician-Administered Dissociative States Scale (CADSS) following the first esketamine administration (BL to 72 hours).
# After having applied the Shapiro-Wilk test to ascertain the normality of distribution of our sample and the Mauchly sphericity test to assess the validity of the Analysis of Variance (ANOVA), we proceeded by performing parametric tests. We used the ANOVA-1way to compare samples for continuous variables and Fishers Least Significant Difference (LSD) to test differences in nominal variables. We used Grubbs’ test (alpha=0.05) to identify statistically significant outliers to exclude them from further analyses. Correlations were sought through Pearson’s r correlation coefficient. Besides concentrations, we calculated the area under the curve (AUC) as stated above. For all other calculations, we used the IBM Statistical Package for the Social Sciences (SPSS), version 29.0 (September 2022, Armonk, New York: IBM Corporation).
# [2] = Clinical rating scales at baseline and one month after first intranasal esketamine; type: in vivo, patients
# Text: as §1
# [3] = after intranasal administration; cited from earlier work
# [4] = phase 3 studies; cited from earlier work
# [5] = Serum esketamine levels (LC-MS/MS) after intranasal esketamine 56 mg in TRD patients; settings: for AUC: human, serum, other: intranasal, 56 mg, AUC value, 0-72 h
# [6] = Salivary esketamine levels (LC-MS/MS) after intranasal esketamine 56 mg in TRD patients
# [7] = set-up: method as in earlier work; settings: ref Data on File. Esketamine. Summary of Clinical Pharmacology. Janssen Research & Development, LLC. EMDS-ERI-149761559; 2018; cited from earlier work
# [8] = 20 min post-esketamine, 15 patients
# [9] = one month following initial esketamine administration, 15 patients
compound,measurement,setting,value
"CN[C@]1(c2ccccc2Cl)CCCCC1=O [esketamine, (S)-isomer of ketamine]",Correlation (χ2) of confusion with serum esketamine levels,"[1]; 20 min post-administration, p < 0.05",3.830
same,Correlation (χ2) of dizziness with serum esketamine levels,"[1]; 20 min post-administration, p = 0.043",4.114
same,Patients with blood pressure reduced,[1]; [8],28.3%
same,Patients with blood pressure relatively unchanged,[1]; [8],28.3%
same,Patients with a rise in systolic blood pressure,"[1]; 20 min post-esketamine, 23 of 53 patients",43.4%
same,Correlation (r) between serum esketamine values and changes in systolic blood pressure,"[1]; at 20 min, p = 0.0003",0.23
same,Correlation (r) between esketamine levels and changes in ACES,"[1]; at 20 minutes, p = 0.02",0.1
same,"Global scores of all clinical scales (BPRS-Total, MADRS, BDI, WHOQOL-BREF or CGI)",[2]; 1 month after esketamine administration,improved
same,YMRS values,"[2]; absolute score, all patients",< 8
same,Patients in whom HAM-A values dropped,[2]; baseline to 1 month,51 of 53
same,Patients with YMRS scores increased,[2]; [9],28.3%
same,Patients with YMRS scores unchanged,[2]; [9],28.3%
same,Patients with YMRS scores decreased,"[2]; one month following initial esketamine administration, 23 patients",43.4%
same,elimination half-life (t½),[3],7 to 12 h
same,time to reach maximum plasma concentrations (Tmax),[3],20 to 40 min
same,Patients with a rise in blood pressure,[4],< 10%
same,Serum esketamine levels after 72 hours,"[5]; 56 mg intranasal, all groups",undetectable
same,AUC value of patient greater than average value of the group,[5]; group 2 patient on oxcarbazepine vs group 2 average,46%
same,AUC,"[5]; average of group, group 1 (paroxetine/fluoxetine)",868 ng·h/mL
same,AUC,"[5]; average of group, group 2 (duloxetine)",655 ng·h/mL
same,AUC,"[5]; average of group, group 3 (venlafaxine/desvenlafaxine)",857 ng·h/mL
same,AUC,"[5]; average of group, group 4 (sertraline/citalopram/escitalopram)",419 ng·h/mL
same,AUC,"[5]; average of group, group 5 (vortioxetine)",439 ng·h/mL
same,AUC,"[5]; average of group, group 6 (TCAs/mirtazapine/trazodone)",705 ng·h/mL
same,AUC,"[5]; single patient, group 1 patient on paroxetine, bupropion, valproate and atorvastatine",628 ng·h/mL
same,AUC,"[5]; single patient, group 2 patient also on oxcarbazepine",954 ng·h/mL
same,AUC,"[5]; single patient, group 3 patient also on valproate",298 ng·h/mL
same,AUC,"[5]; single patient, group 3 patient also on valproate and atorvastatin",599 ng·h/mL
same,AUC,"[5]; single patient, group 4 patient also on topiramate",921 ng·h/mL
same,AUC,"[5]; single patient, group 5 patient also on prednisone",957 ng·h/mL
same,AUC,"[5]; single patient, group 6 patient on mirtazapine and oxcarbazepine",260 ng·h/mL
same,Salivary levels of esketamine at 20 min relative to serum levels,[6]; 56 mg intranasal,several-fold greater than serum levels
same,Esketamine levels in the saliva after 72 hours,"[6]; a few patients on fluoxetine/paroxetine, duloxetine or venlafaxine/desvenlafaxine",still detectable
same,concentration at 20 min,"[6]; human, saliva, other: intranasal, 56 mg",> 1000 ng/mL
CC[C@H]1OC(=O)[C@H](C)[C@@H](O[C@H]2C[C@@](C)(OC)[C@@H](O)[C@H](C)O2)[C@H](C)[C@@H](O[C@@H]2O[C@H](C)C[C@H](N(C)C)[C@H]2O)[C@](C)(OC)C[C@@H](C)C(=O)[C@H](C)[C@@H](O)[C@]1(C)O [clarithromycine],Effect of co-treatment on the PK profile of esketamine,[7],negligible effect
